Paper PMC12707346, “Discovery and validation of small molecule stabilizers of mutant triose phosphate isomerase (TPI) as potential lead candidates for TPI deficiency” (SLAS discovery : advancing life sciences R & D, 2025)
Where “and” joins values, the source holds several entries; their conditions need not be identical. Equal entries are not always repeated. Where two headings read alike, the source gives them in different places.

Experiment: Tissue distribution study in mice, 20 mg/kg i.p.
Type: in vivo, C57BL/6 J mice
Conditions: mouse; for Plasma or Tissue Homogenate Conc (individual animals) / concentration at 0.5 h / concentration at 1 h / concentration at 2 h / concentration at 4 h / concentration at 8 h: 20 mg/kg
Method: Male C57BL/6 J (Jackson Laboratories) wild type mice (age: 40–60 days) weighing 25–30 g, were used for the tissue distribution study. Mice were randomly assigned in two groups: blank (n = 1) and treatment. The treatment group received 20 mg/kg compound 424 intraperitoneally (n = 15; 3 animals per time point i.e., 0.5, 1, 2, 4, and 8 h). Molport 002–877–424 was formulated in a vehicle consisting of 20 % DMSO, 50 % PEG300, and 30 % sterile water. At each time point animals were euthanized via isoflurane overdose. Blood was collected in ETDA-coated tubes at each time points and centrifuged at 15,000 x g for 5 min. The separated plasma was stored at −80 °C. Following blood collection, liver, kidney, skeletal muscle and brain were isolated, rinsed in normal saline and approximately 100 mg of tissues were snap-frozen and stored at −80 °C. All plasma and tissue samples were shipped on dry ice to Touchstone Biosciences for further analysis. Sample preparation and analysis was performed at Touchstone Biosciences exactly as described in [20].

## c1ccc(-c2nnc(-c3ccccn3)nc2NC2CCCCC2)cc1 [MolPort-002-877-424, C1CCC(CC1)Nc2nc(nnc2c3ccccc3)c4ccccn4]
Brain, 0.5 h, IP 20 mg/kg
  Plasma or Tissue Homogenate Conc (individual animals): 391 ng/mL and 321 ng/mL
Brain, 1 h, IP 20 mg/kg
  Plasma or Tissue Homogenate Conc (individual animals): 323 ng/mL and 318 ng/mL
Brain, 2 h, IP 20 mg/kg
  Plasma or Tissue Homogenate Conc (individual animals): 160 ng/mL and 129 ng/mL
Brain, 4 h, IP 20 mg/kg
  Plasma or Tissue Homogenate Conc (individual animals): 69.3 ng/mL and 59.0 ng/mL
Brain, 8 h, IP 20 mg/kg
  Plasma or Tissue Homogenate Conc (individual animals): 29.7 ng/mL and 17.1 ng/mL
Kidney, 0.5 h, IP 20 mg/kg
  Plasma or Tissue Homogenate Conc (individual animals): 2870 ng/mL and 2290 ng/mL
Kidney, 1 h, IP 20 mg/kg
  Plasma or Tissue Homogenate Conc (individual animals): 2330 ng/mL and 2470 ng/mL
Kidney, 2 h, IP 20 mg/kg
  Plasma or Tissue Homogenate Conc (individual animals): 1240 ng/mL and 925 ng/mL
Kidney, 4 h, IP 20 mg/kg
  Plasma or Tissue Homogenate Conc (individual animals): 538 ng/mL and 466 ng/mL
Kidney, 8 h, IP 20 mg/kg
  Plasma or Tissue Homogenate Conc (individual animals): 239 ng/mL and 196 ng/mL
Liver, 0.5 h, IP 20 mg/kg
  Plasma or Tissue Homogenate Conc (individual animals): 3410 ng/mL and 3100 ng/mL
Liver, 1 h, IP 20 mg/kg
  Plasma or Tissue Homogenate Conc (individual animals): 3010 ng/mL and 3640 ng/mL
Liver, 2 h, IP 20 mg/kg
  Plasma or Tissue Homogenate Conc (individual animals): 1750 ng/mL and 1580 ng/mL
Liver, 4 h, IP 20 mg/kg
  Plasma or Tissue Homogenate Conc (individual animals): 777 ng/mL and 744 ng/mL
Liver, 8 h, IP 20 mg/kg
  Plasma or Tissue Homogenate Conc (individual animals): 311 ng/mL and 303 ng/mL
Muscle, 0.5 h, IP 20 mg/kg
  Plasma or Tissue Homogenate Conc (individual animals): 648 ng/mL and 456 ng/mL
Muscle, 1 h, IP 20 mg/kg
  Plasma or Tissue Homogenate Conc (individual animals): 354 ng/mL and 480 ng/mL
Muscle, 2 h, IP 20 mg/kg
  Plasma or Tissue Homogenate Conc (individual animals): 206 ng/mL and 218 ng/mL
Muscle, 4 h, IP 20 mg/kg
  Plasma or Tissue Homogenate Conc (individual animals): 92.1 ng/mL and 94.2 ng/mL
Muscle, 8 h, IP 20 mg/kg
  Plasma or Tissue Homogenate Conc (individual animals): 39.8 ng/mL and 33.3 ng/mL
Plasma, 0.5 h, IP 20 mg/kg
  Plasma or Tissue Homogenate Conc (individual animals): 10300 ng/mL and 8770 ng/mL
Plasma, 1 h, IP 20 mg/kg
  Plasma or Tissue Homogenate Conc (individual animals): 8560 ng/mL and 11200 ng/mL
Plasma, 2 h, IP 20 mg/kg
  Plasma or Tissue Homogenate Conc (individual animals): 4380 ng/mL and 4500 ng/mL
Plasma, 4 h, IP 20 mg/kg
  Plasma or Tissue Homogenate Conc (individual animals): 2660 ng/mL and 1990 ng/mL
Plasma, 8 h, IP 20 mg/kg
  Plasma or Tissue Homogenate Conc (individual animals): 1310 ng/mL and 925 ng/mL
male, C57BL/6 J, brain, ip, 20 mg/kg i.p., read-out: mean tissue to plasma ratios (brain)
  Kp: ≤ 0.134
male, C57BL/6J, kidney/plasma, Kidney, 0.5 h, IP 20 mg/kg, read-out: Mean Tissue/ Plasma Conc Ratio
  Kp at 0.5 h: 0.94
male, C57BL/6J, liver/plasma, Liver, 0.5 h, IP 20 mg/kg, read-out: Mean Tissue/ Plasma Conc Ratio
  Kp at 0.5 h: 1.38
male, C57BL/6J, liver/plasma, Liver, 1 h, IP 20 mg/kg, read-out: Mean Tissue/ Plasma Conc Ratio
  Kp at 1 h: 1.33
male, C57BL/6J, liver/plasma, Liver, 2 h, IP 20 mg/kg, read-out: Mean Tissue/ Plasma Conc Ratio
  Kp at 2 h: 1.3
male, C57BL/6J, liver/plasma, Liver, 4 h, IP 20 mg/kg, read-out: Mean Tissue/ Plasma Conc Ratio
  Kp at 4 h: 1.25
male, C57BL/6J, liver/plasma, Liver, 8 h, IP 20 mg/kg, read-out: Mean Tissue/ Plasma Conc Ratio
  Kp at 8 h: 1.06
male, C57BL/6 J, brain homogenate, ip, Brain, 0.5 h, IP 20 mg/kg, read-out: Mean Plasma or Tissue Homogenate Conc
  concentration at 0.5 h: 350 ng/mL
male, C57BL/6 J, brain homogenate, ip, Brain, 0.5 h, IP 20 mg/kg, read-out: Plasma or Tissue Homogenate Conc (individual animals)
  concentration at 0.5 h: 339 ng/mL
male, C57BL/6 J, brain homogenate, ip, Brain, 1 h, IP 20 mg/kg, read-out: Mean Plasma or Tissue Homogenate Conc
  concentration at 1 h: 276 ng/mL
male, C57BL/6 J, brain homogenate, ip, Brain, 1 h, IP 20 mg/kg, read-out: Plasma or Tissue Homogenate Conc (individual animals)
  concentration at 1 h: 186 ng/mL
male, C57BL/6 J, brain homogenate, ip, Brain, 2 h, IP 20 mg/kg, read-out: Mean Plasma or Tissue Homogenate Conc
  concentration at 2 h: 136 ng/mL
male, C57BL/6 J, brain homogenate, ip, Brain, 2 h, IP 20 mg/kg, read-out: Plasma or Tissue Homogenate Conc (individual animals)
  concentration at 2 h: 118 ng/mL
male, C57BL/6 J, brain homogenate, ip, Brain, 4 h, IP 20 mg/kg, read-out: Mean Plasma or Tissue Homogenate Conc
  concentration at 4 h: 57.5 ng/mL
male, C57BL/6 J, brain homogenate, ip, Brain, 4 h, IP 20 mg/kg, read-out: Plasma or Tissue Homogenate Conc (individual animals)
  concentration at 4 h: 44.1 ng/mL
male, C57BL/6 J, brain homogenate, ip, Brain, 8 h, IP 20 mg/kg, read-out: Mean Plasma or Tissue Homogenate Conc
  concentration at 8 h: 22.3 ng/mL
male, C57BL/6 J, brain homogenate, ip, Brain, 8 h, IP 20 mg/kg, read-out: Plasma or Tissue Homogenate Conc (individual animals)
  concentration at 8 h: 20.2 ng/mL
male, C57BL/6 J, brain, ip, Brain, 0.5 h, IP 20 mg/kg, read-out: Mean Tissue
  concentration at 0.5 h: 1400 ng/g
male, C57BL/6 J, brain, ip, Brain, 1 h, IP 20 mg/kg, read-out: Mean Tissue
  concentration at 1 h: 1100 ng/g
male, C57BL/6 J, brain, ip, Brain, 2 h, IP 20 mg/kg, read-out: Mean Tissue
  concentration at 2 h: 543 ng/g
male, C57BL/6 J, brain, ip, Brain, 4 h, IP 20 mg/kg, read-out: Mean Tissue
  concentration at 4 h: 230 ng/g
male, C57BL/6 J, brain, ip, Brain, 8 h, IP 20 mg/kg, read-out: Mean Tissue
  concentration at 8 h: 89.3 ng/g
male, C57BL/6J, kidney homogenate, ip, Kidney, 0.5 h, IP 20 mg/kg, read-out: Mean Plasma or Tissue Homogenate Conc
  concentration at 0.5 h: 2460 ng/mL
male, C57BL/6J, kidney homogenate, ip, Kidney, 0.5 h, IP 20 mg/kg, read-out: Plasma or Tissue Homogenate Conc (individual animals)
  concentration at 0.5 h: 2210 ng/mL
male, C57BL/6 J, kidney homogenate, ip, Kidney, 1 h, IP 20 mg/kg, read-out: Mean Plasma or Tissue Homogenate Conc
  concentration at 1 h: 2130 ng/mL
male, C57BL/6 J, kidney homogenate, ip, Kidney, 1 h, IP 20 mg/kg, read-out: Plasma or Tissue Homogenate Conc (individual animals)
  concentration at 1 h: 1580 ng/mL
male, C57BL/6 J, kidney homogenate, ip, Kidney, 2 h, IP 20 mg/kg, read-out: Mean Plasma or Tissue Homogenate Conc
  concentration at 2 h: 1020 ng/mL
male, C57BL/6 J, kidney homogenate, ip, Kidney, 2 h, IP 20 mg/kg, read-out: Plasma or Tissue Homogenate Conc (individual animals)
  concentration at 2 h: 889 ng/mL
male, C57BL/6 J, kidney homogenate, ip, Kidney, 4 h, IP 20 mg/kg, read-out: Mean Plasma or Tissue Homogenate Conc
  concentration at 4 h: 439 ng/mL
male, C57BL/6 J, kidney homogenate, ip, Kidney, 4 h, IP 20 mg/kg, read-out: Plasma or Tissue Homogenate Conc (individual animals)
  concentration at 4 h: 314 ng/mL
male, C57BL/6 J, kidney homogenate, ip, Kidney, 8 h, IP 20 mg/kg, read-out: Mean Plasma or Tissue Homogenate Conc
  concentration at 8 h: 196 ng/mL
male, C57BL/6 J, kidney homogenate, ip, Kidney, 8 h, IP 20 mg/kg, read-out: Plasma or Tissue Homogenate Conc (individual animals)
  concentration at 8 h: 153 ng/mL
male, C57BL/6J, kidney, ip, Kidney, 0.5 h, IP 20 mg/kg, read-out: Mean Tissue
  concentration at 0.5 h: 9830 ng/g
male, C57BL/6 J, kidney, ip, Kidney, 1 h, IP 20 mg/kg, read-out: Mean Tissue
  concentration at 1 h: 8510 ng/g
